pIC50: −log10 of the molar value.
How the values were obtained:
[1] = tested on: HepG2 cells; assay: Quantification of the secretion of ApoB; format: cell-based; conditions: Homo sapiens, HepG2, 24 h, 24 hours of incubation, pIC50 = -log IC50
Method: HepG2 cells were cultured in 24-well plates in MEM Rega 3 containing 10% fetal calf serum. At 70% confluency, the medium was changed and the test compound or carrier (DMSO, 0.4% final concentration) was added. After 24 hours of incubation, the medium was transferred to Eppendorf tubes and cleared by centrifugation. A sheep antibody directed against either apoB was added to the supernatant and the mixture was kept at 8° C. for 24 hours. Then, rabbit anti-sheep antibody was added and the immune complex was allowed to precipitate for 24 hours at 8° C. The immunoprecipitate was pelleted by centrifugation for 25 minutes at 1320 g and washed twice with a buffer containing 40 mM Mops, 40 mM NaH2PO4, 100 mM NaF, 0.2 mM DTT, 5 mM EDTA, 5 mM EGTA, 1% Triton-X-100, 0.5% sodium deoxycholate (DOC), 0.1% SDS, 0.2 μM leupeptin and 0.2 μM PMSF. Radioactivity in the pellet was quantified by liquid scintillation counting. The IC50 values are usually converted to pIC50 values (=−log IC50 value) for ease of use.

[2] = biological target: MTP (Homo sapiens, UniProt P55157); assay: MTP assay (triglyceride transfer from donor to acceptor vesicles); format: biochemical; conditions: MTP activity, percent triglyceride transfer from donor to acceptor vesicles, 37° C.
Outline: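 Radiolabelled triglyceride transfer from donor vesicles (phosphatidylcholine, 7.5 mol % cardiolipin, 0.25 mol % glycerol tri[1-^14C]-oleate) to phosphatidylcholine acceptor vesicles with BSA, pH 7.5 Tris buffer; compounds in DMSO (0.13% final), 5 min preincubation at 37° C before MTP addition. Donor vesicles removed on DEAE-52; acceptor-supernatant ^14C counts give percent transfer.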

MTP, sequence (P55157 19-894, species assumed): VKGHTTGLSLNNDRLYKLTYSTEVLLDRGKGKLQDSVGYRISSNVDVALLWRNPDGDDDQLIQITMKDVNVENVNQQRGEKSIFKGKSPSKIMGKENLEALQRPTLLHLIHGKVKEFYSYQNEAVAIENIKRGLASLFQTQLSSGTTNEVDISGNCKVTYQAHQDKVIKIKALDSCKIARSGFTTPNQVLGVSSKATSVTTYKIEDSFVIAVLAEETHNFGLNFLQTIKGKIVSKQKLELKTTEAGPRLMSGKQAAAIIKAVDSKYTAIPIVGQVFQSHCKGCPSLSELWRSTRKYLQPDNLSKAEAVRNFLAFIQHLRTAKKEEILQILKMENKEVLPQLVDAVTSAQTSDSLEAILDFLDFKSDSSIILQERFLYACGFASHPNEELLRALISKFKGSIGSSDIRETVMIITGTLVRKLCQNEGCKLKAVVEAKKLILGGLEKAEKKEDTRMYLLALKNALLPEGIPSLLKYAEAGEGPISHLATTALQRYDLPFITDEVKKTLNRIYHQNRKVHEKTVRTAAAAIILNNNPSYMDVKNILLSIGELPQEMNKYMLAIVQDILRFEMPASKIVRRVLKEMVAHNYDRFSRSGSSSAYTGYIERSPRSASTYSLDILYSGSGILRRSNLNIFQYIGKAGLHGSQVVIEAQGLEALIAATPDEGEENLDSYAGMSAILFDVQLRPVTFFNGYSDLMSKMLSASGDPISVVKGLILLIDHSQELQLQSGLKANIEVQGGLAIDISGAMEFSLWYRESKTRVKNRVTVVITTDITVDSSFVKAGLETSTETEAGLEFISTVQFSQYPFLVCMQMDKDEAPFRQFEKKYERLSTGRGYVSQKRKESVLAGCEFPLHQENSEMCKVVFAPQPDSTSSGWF
MTP, sequence (P07237 18-508 partner, species assumed): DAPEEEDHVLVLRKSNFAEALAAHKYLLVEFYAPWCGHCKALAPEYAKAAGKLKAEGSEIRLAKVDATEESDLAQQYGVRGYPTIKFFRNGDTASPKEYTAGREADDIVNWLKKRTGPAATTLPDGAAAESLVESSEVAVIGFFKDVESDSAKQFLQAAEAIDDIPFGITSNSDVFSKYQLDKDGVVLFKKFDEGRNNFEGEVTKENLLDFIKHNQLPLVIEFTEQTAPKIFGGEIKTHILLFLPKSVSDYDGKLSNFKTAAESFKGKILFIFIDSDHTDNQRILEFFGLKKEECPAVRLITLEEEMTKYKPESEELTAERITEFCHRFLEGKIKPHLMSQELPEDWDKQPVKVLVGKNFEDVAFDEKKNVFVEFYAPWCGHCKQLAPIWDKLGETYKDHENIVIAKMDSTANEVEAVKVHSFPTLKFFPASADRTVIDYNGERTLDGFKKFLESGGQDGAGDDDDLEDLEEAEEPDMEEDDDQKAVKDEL

| pIC50 [1] | pIC50 [2] | SMILES |
| --- | --- | --- |
| < 6.00 | 6.64 | CCOC(=O)C1CCCN(C(=O)[C@@]2(c3ccccc3)CC[C@H](C(=O)N3CCC(NC(=O)c4ccccc4OC)CC3)c3ccccc32)C1 (stereo partly shown) [Co. No. 84] |
| 7.69 | 8.67 | COc1ccccc1C(=O)NC1CCN(C(=O)[C@H]2CC[C@@](C(=O)NCCC(=O)OC(C)(C)C)(c3ccccc3)c3ccccc32)CC1 [Co. No. 88] |
| 6.29 | 7.42 | COc1ccccc1C(=O)NC1CCN(C(=O)[C@H]2CC[C@@](C(=O)N[C@H](Cc3ccccc3)C(=O)OC(C)(C)C)(c3ccccc3)c3ccccc32)CC1 [Co. No. 96] |
| 6.78 | 7.87 | COc1ccccc1C(=O)NC1CCN(C(=O)[C@H]2CC[C@@](C(=O)N[C@H](C(=O)OC(C)(C)C)C(C)C)(c3ccccc3)c3ccccc32)CC1 [Co. No. 102] |
| 6.42 | 7.21 | COc1ccccc1C(=O)NC1CCN(C(=O)[C@H]2CC[C@@](C(=O)N[C@@H](C(=O)OC(C)(C)C)C(C)C)(c3ccccc3)c3ccccc32)CC1 [Co. No. 103] |
| 6.73 | 7.79 | COc1ccccc1C(=O)NC1CCN(C(=O)[C@H]2CC[C@@](C(=O)N[C@@H](CC(=O)OC(C)(C)C)C(=O)OC(C)(C)C)(c3ccccc3)c3ccccc32)CC1 [Co. No. 106] |
| 7.13 | 8.04 | COc1ccccc1C(=O)NC1CCN(C(=O)[C@H]2CC[C@@](C(=O)N[C@@H](CCC(=O)OC(C)(C)C)C(=O)OC(C)(C)C)(c3ccccc3)c3ccccc32)CC1 [Co. No. 108] |
| 6.61 | < 7.00 | COc1ccccc1C(=O)NC1CCN(C(=O)[C@H]2CC[C@@](C(=O)N3CCC[C@H]3C(=O)OC(C)(C)C)(c3ccccc3)c3ccccc32)CC1 [Co. No. 110] |
| < 6.00 | < 5.00 | COc1ccccc1C(=O)NC1CCN(C(=O)[C@H]2CC[C@@](C(=O)N[C@@H](CC(=O)O)C(=O)O)(c3ccccc3)c3ccccc32)CC1 [Co. No. 121] |
| 8.36 | 8.75 | CCOC(=O)CCNC(=O)[C@@]1(c2ccccc2)CC[C@H](C(=O)N2CCC(NC(=O)c3ccccc3OC)CC2)c2ccccc21 [Co. No. 129] |
| < 6.00 | 6.22 | COC(=O)CCNC(=O)[C@@]1(c2ccccc2)CC[C@H](C(=O)N2CCC(NC(=O)c3cccn(C)c3=O)CC2)c2ccccc21 [Co. No. 138] |
| < 6.00 | 6.88 | COC(=O)[C@H](CCCCNC(=O)OC(C)(C)C)NC(=O)[C@@]1(c2ccccc2)CC[C@H](C(=O)N2CCC(NC(=O)c3cccn(C)c3=O)CC2)c2ccccc21 [Co. No. 148] |
| < 6.00 | 6.89 | CCOC(=O)CCNC(=O)[C@@]1(c2ccccc2)CC[C@H](C(=O)N2CCC(NC(=O)c3cccn(C)c3=O)CC2)c2ccccc21 [Co. No. 159] |
| 7.37 | 8.53 | COc1ccccc1C(=O)NC1CCN(C(=O)[C@H]2CC[C@@](C(=O)NCCCCC(=O)OC(C)C)(c3ccccc3)c3ccccc32)CC1 [Co. No. 206] |
| 7.24 | 8.73 | COc1ccccc1C(=O)NC1CCN(C(=O)[C@H]2CC[C@@](C(=O)NCCCCCC(=O)OC(C)C)(c3ccccc3)c3ccccc32)CC1 [Co. No. 208] |
| < 6.00 | 7.44 | COc1ccccc1C(=O)NC1CCN(C(=O)[C@H]2CC[C@@](C(=O)NCCCCCC(=O)OC(C)(C)C)(c3ccccc3)c3ccccc32)CC1 [Co. No. 209] |
| 8.06 | 8.53 | CCOC(=O)[C@H](CCCCNC(=O)OC(C)(C)C)NC(=O)[C@@]1(c2ccccc2)CC[C@H](C(=O)N2CCC(NC(=O)c3ccccc3OC)CC2)c2ccccc21 [Co. No. 210] |

Continued, compound first:

| SMILES | pIC50 [1] | pIC50 [2] |
| --- | --- | --- |
| CCOC(=O)C(Cc1ccc(O)cc1)NC(=O)[C@@]1(c2ccccc2)CC[C@H](C(=O)N2CCC(NC(=O)c3ccccc3OC)CC2)c2ccccc21 (stereo partly shown) [Co. No. 85] | < 6.00 | < 7.00 |
| CCOC(=O)C(Cc1c[nH]c2ccccc12)NC(=O)[C@@]1(c2ccccc2)CC[C@H](C(=O)N2CCC(NC(=O)c3ccccc3OC)CC2)c2ccccc21 (stereo partly shown) [Co. No. 86] | 6.18 | 7.18 |
| COc1ccccc1C(=O)NC1CCN(C(=O)[C@H]2CC[C@@](C(=O)NCCC(=O)O)(c3ccccc3)c3ccccc32)CC1 [Co. No. 90] | < 6.00 | 5.67 |
| COc1ccccc1C(=O)NC1CCN(C(=O)[C@H]2CC[C@@](C(=O)N[C@@H](CC(C)C)C(=O)OC(C)(C)C)(c3ccccc3)c3ccccc32)CC1 [Co. No. 104] | 6.77 | 7.67 |
| COc1ccccc1C(=O)NC1CCN(C(=O)[C@H]2CC[C@@](C(=O)N[C@@H](COC(C)(C)C)C(=O)OC(C)(C)C)(c3ccccc3)c3ccccc32)CC1 [Co. No. 105] | 6.57 | 7.31 |
| COc1ccccc1C(=O)NC1CCN(C(=O)[C@H]2CC[C@@](C(=O)N[C@@H](CCC(N)=O)C(=O)OC(C)(C)C)(c3ccccc3)c3ccccc32)CC1 [Co. No. 107] | < 6.00 | < 7.00 |
| COc1ccccc1C(=O)NC1CCN(C(=O)[C@H]2CC[C@@](C(=O)N[C@@H](CCCCNC(=O)OC(C)(C)C)C(=O)OC(C)(C)C)(c3ccccc3)c3ccccc32)CC1 [Co. No. 109] | 8.56 | 8.61 |
| COc1ccccc1C(=O)NC1CCN(C(=O)[C@H]2CC[C@@](C(=O)N[C@@H](Cc3ccccc3)C(=O)OC(C)(C)C)(c3ccccc3)c3ccccc32)CC1 [Co. No. 112] | 6.87 | 7.75 |
| Cn1cccc(C(=O)NC2CCN(C(=O)[C@H]3CC[C@@](C(=O)NCCC(=O)OC(C)(C)C)(c4ccccc4)c4ccccc43)CC2)c1=O [Co. No. 164] | < 6.00 | 7.19 |
| Cn1cccc(C(=O)NC2CCN(C(=O)[C@H]3CC[C@@](C(=O)N[C@@H](CCCCNC(=O)OC(C)(C)C)C(=O)OC(C)(C)C)(c4ccccc4)c4ccccc43)CC2)c1=O [Co. No. 172] | < 6.00 | 7.47 |
| COc1ccccc1C(=O)NC1CCN(C(=O)[C@H]2CC[C@@](C(=O)NCCC(=O)OC(C)C)(c3ccccc3)c3ccccc32)CC1 [Co. No. 199] | 8.13 | 8.88 |
| CCOC(=O)CC(C)NC(=O)[C@@]1(c2ccccc2)CC[C@H](C(=O)N2CCC(NC(=O)c3ccccc3OC)CC2)c2ccccc21 (stereo partly shown) [Co. No. 200] | 6.59 | 8.17 |
| COC(=O)CCCNC(=O)[C@@]1(c2ccccc2)CC[C@H](C(=O)N2CCC(NC(=O)c3ccccc3OC)CC2)c2ccccc21 [Co. No. 201] | < 6.00 | 8.11 |
| CCOC(=O)CCCNC(=O)[C@@]1(c2ccccc2)CC[C@H](C(=O)N2CCC(NC(=O)c3ccccc3OC)CC2)c2ccccc21 [Co. No. 202] | 6.10 | 8.50 |
| COc1ccccc1C(=O)NC1CCN(C(=O)[C@H]2CC[C@@](C(=O)NCCCC(=O)OC(C)(C)C)(c3ccccc3)c3ccccc32)CC1 [Co. No. 203] | 7.52 | 8.69 |
| COC(=O)CCCCNC(=O)[C@@]1(c2ccccc2)CC[C@H](C(=O)N2CCC(NC(=O)c3ccccc3OC)CC2)c2ccccc21 [Co. No. 204] | < 6.00 | 7.23 |
| CCOC(=O)CCCCNC(=O)[C@@]1(c2ccccc2)CC[C@H](C(=O)N2CCC(NC(=O)c3ccccc3OC)CC2)c2ccccc21 [Co. No. 205] | 7.12 | 8.26 |
| COC(=O)CCCCCNC(=O)[C@@]1(c2ccccc2)CC[C@H](C(=O)N2CCC(NC(=O)c3ccccc3OC)CC2)c2ccccc21 [Co. No. 207] | < 6.00 | 8.59 |

Source: US8114880B2, “Piperidine or piperazine substituted tetrahydro-naphthalene-1-carboxylic acid MTP inhibiting compounds” (Janssen Pharmaceutica N.V., priority 2006, dated 2012)
